The values below are quoted from earlier work in US11395819B1, “Antiviral and virucidal lung nebulizer compositions and related treatment methods” (priority 2021, dated 2022).

Structures can show the parent of a compound that is named as a salt.

In data set [1] the test system is divergent influenza A strains and influenza B strain.
In data set [2] the test system is avian H7N9 influenza virus. As to conditions: mice.
For data set [3] the following is noted: given by inhalation.

With `CN(C)CCC(c1ccc(Cl)cc1)c1ccccn1` (stereo not drawn) [Chlorpheniramine, chlorpheniramine maleate], the “inhibitory activity against influenza” value in data set [1] is given as “potent inhibitory activity”. Moreover, in data set [2], the “protection from fatal challenge” value is “protects mice from fatal challenge”. For the same molecule, in data set [3], the bronchodilation result is given as “significant bronchodilation”.
